Counter-ions that a name gives are not always drawn.
Columns and labels:
PBMC from CLL patients = assay: Confirmation of positive hits, dose-response TiterGlo growth inhibition, PBMC from CLL patients versus healthy controls
Experimental: (§1) Each compound from the ENZO FDA SCREEN-WELL® FDA approved drug library V2 (0.10 μl in 100% DMSO) was transferred to white, 384-well, PS, Cellstar plates (Greiner Bio-One) using the Echo® Liquid Handler (Labcyte Inc.). Each plate contained one column for the High/Low Controls. The Low Control (1% DMSO v/v in column 23, no cells) and the High Control (final 1% DMSO v/v in column 24, with cells) were employed to calculate the Z′ for each assay plate. […] At 24 h post seeding, baseline growth was assessed using a control plate and CellTiter-Glo (CTG) reagent (Promega Corporation). Briefly, 20 μL/well of CTG detection mix was added and plates were read using an EnVision Multimode plate reader (PerkinElmer) after 10 min incubation in the dark. The raw luminescence signal was normalized in ActivityBase XE with outliers in control wells eliminated according to the 3-sigma method to yield percentage of cell viability by using the High Control (HC) containing cells in 1% DMSO v/v (Carl Roth) and the Low Control containing 1% DMSO v/v (Carl Roth). All Medium-Throughput Screening experiments were performed in duplicate for each patient. […] The raw luminescence signal was processed using Graph Pad Prism (Graph Pad Software Inc.) with outliers in control wells eliminated according to the 3-sigma method. The dose-response curves were analyzed using a 4 parameter sigmoidal fit to obtain plausible results in the case non-sigmoidal dose-response curves.
Compound plates were prepared from the same stock used in the original screening and each compound was tested at 16 concentration point with 100 uM being the highest concentration and the dilution factor was ⅓ between two points.
The TitreGlo was performed as described and the curve for growth inhibition was plotted using activity base to calculate the EC50.

PBMCs from CML patients = assay: Primary screening of FDA approved drug library, TitreGlo/CellTiter-Glo cell viability, PBMCs from CML patients; assay type: cell-based, human; conditions: compound 10 uM, PBMCs from CML patients, average over patients, relative to high control (0%) and no-cell low control (100%); for inhibition at 10 µM: Homo sapiens, PBMC, read-out: % Inhibition, CML Average
Experimental: (§2) Whole blood was taken from experimental group patients and control group patients. The collected blood was transferred to EDTA tubes with a 5 mL pipette and a pipette aid and then to each EDTA tubes corresponding 50 ml centrifuge tubes. All the blood from one patient was placed into 1 tube (50 mL) and an equal volume of PBS was added to the 50 mL centrifuge tube. The sample was then mixed by either inverting the tube or pipetting up & down. The blood was transferred into tow 50 mL leucosep tube and centrifuged at room temperature (18-20° C.) for 15 minutes at 800×g with the brake turned off and acceleration at 2/deceleration at zero. After centrifugation, the white cell interface (buffy coat) was removed by pasture pipette and transferred to the new appropriately labelled 50 ml centrifuge tube. 25 mL PBS was added to the white cell interface (buffy coat) and the mix was centrifuged for 10 minutes at room temperature at 400×g with the brake off and acceleration at 4 & deceleration at 2. The supernatant was discarded from the pellet carefully in an appropriate manner. The pellet was washed another time with 20 mL by centrifugation for 5 minutes as above. The pellet was re-suspended in 5 mL and cells were counted using V-Cell. The cells were then either used directly as fresh for screening or frozen in liquid nitrogen in 10% DMSO/RPMPI media until use.
(§3) The assay used for TitreGlo (Promega) to measure cell viability based on the ATP production. […] The assay was developed in a 384-well plate with 2500 cell/well in 50 uL total volume. Alternatively, the assay could be developed in a 96-well plate with 10,000 cells/well. […] Z′ as a statistics factor was calculated as follows:
as §1
(§4) Each average patient samples were plotted against average of the control samples to identify the positive hits.
Samples from 4 patients were screened against the FDA approved drug library where the Negative Control (High control) contained cells treated with DMSO and the Positive Control (Low control) were based using no cells. The screening was carried out in 96 well plates. The raw luminescence counts were normalized and the % Inhibition was calculated relative to the high control (0% Inhibition) and the low control (100% Inhibition).

PBMCs from CLL patients = assay: Primary screening of FDA approved drug library, TitreGlo/CellTiter-Glo cell viability, PBMCs from CLL patients; assay type: cell-based, human; conditions: compound 10 uM, PBMCs from CLL patients, average over patients, relative to high control (0%) and no-cell low control (100%); for inhibition at 10 µM: Homo sapiens, PBMC, read-out: % Inhibition, CLL Average
Experimental: as §2, §3, §1
(§5) The Screen-Well FDA approved drug library was screened, which contains 780 approved drugs. […] The final DMSO concentration in the assay plate was 0.1% of total volume. […] The average of all four control samples was then calculated and used to determine the positive “hits” in patients' samples.
as §4

PBMCs from AML patients = assay: Primary screening of FDA approved drug library, TitreGlo/CellTiter-Glo cell viability, PBMCs from AML patients; assay type: cell-based, human; conditions: compound 10 uM, PBMCs from AML patients, average over patients, relative to high control (0%) and no-cell low control (100%); for inhibition at 10 µM: Homo sapiens, PBMC, read-out: % Inhibition, AML Average
Experimental: as §2, §3, §1, §5, §4

PBMCs from ALL patients = assay: Primary screening of FDA approved drug library, TitreGlo/CellTiter-Glo cell viability, PBMCs from ALL patients; assay type: cell-based, human; conditions: compound 10 uM, PBMCs from ALL patients, average over patients, relative to high control (0%) and no-cell low control (100%); for inhibition at 10 µM: Homo sapiens, PBMC, read-out: % Inhibition, ALL Average
Experimental: as §2, §3, §1, §5, §4

PBMC from CML patients = assay: Confirmation of positive hits, dose-response TiterGlo growth inhibition, PBMC from CML patients versus healthy controls; assay type: cell-based, human; conditions: freshly prepared stock from solid, 24 hr incubation
Experimental: FIG. 2A depicts data of isoproterenol inducing cell death preferentially in chronic myelogenous leukemia (CML) patients' primary PBMC as compared to PBMC from healthy individuals (Control, CTL) when incubated with different concentrations of isoproterenol prepared from liquid stock. FIG. 2B depicts data of isoproterenol inducing cell death preferentially in chronic myelogenous leukemia (CML) patients' primary PBMC as compared to PBMC from healthy individuals (Control, CTL) when incubated with different concentrations of isoproterenol prepared from a solid.

Molecule | inhibition at 10 µM (PBMCs from CML patients) | inhibition at 10 µM (PBMCs from CLL patients) | inhibition at 10 µM (PBMCs from AML patients) | inhibition at 10 µM (PBMCs from ALL patients) | also measured
C[C@](N)(Cc1ccc(O)c(O)c1)C(=O)O [Methyldopa] | – | – | – | – | Effect on CLL PBMC compared to control cells (PBMC from CLL patients; dose-response, FIG. 3): show an effect on CLL PBMC better than control cell
Cc1cc2c(s1)Nc1ccccc1N=C2N1CCN(C)CC1 [Olanzapine] | 79.5% | -26.5% | 1.8% | 71.8% | Induction of cell death in PBMC from CLL patients compared to control cells (PBMC from CLL patients; fresh primary cells, FIG. 4A-4D): shown to induce cell death in PBMC from CLL patients compared to control cells; Effect on PBMC when primary cells are tested after freezing (PBMC from CLL patients; primary cells tested after freezing): the effect is not observed
CC(C)NCC(O)c1ccc(O)c(O)c1 (racemic) [(±) Isoproterenol HCl] | 65.3% | 39.9% | – | 61.7% | EC50 of growth inhibition, times higher in control PBMC compared to PBMC from CML patients (PBMC from CML patients): 4.4 times; EC50 of growth inhibition, times higher in control PBMC compared to PBMC from CLL patients (PBMC from CLL patients; freshly prepared stock from solid, 24 hr incubation, TiterGlo): 4.8 times
Ivermectin | – | – | – | – | % Inhibition, CML Average (PBMCs from CML patients): 79.3%; % Inhibition, CLL Average (PBMCs from CLL patients): 66.0%; % Inhibition, AML Average (PBMCs from AML patients): 60.2%; % Inhibition, ALL Average (PBMCs from ALL patients): 70.4%
OC(c1cc(C(F)(F)F)nc2c(C(F)(F)F)cccc12)C1CCCCN1 (stereo not shown) [Mefloquine HCl] | 90.4% | 50.5% | 72.7% | 87.7% | –
Clc1ccc(COC(Cn2ccnc2)c2ccc(Cl)cc2Cl)c(Cl)c1 (stereo not shown) [Miconazole] | 69.9% | -3.3% | 38.1% | -35.1% | –
[H]/N=C(\N/C(=N/[H])NCCCCCCNC(=N)NC(=N)Nc1ccc(Cl)cc1)Nc1ccc(Cl)cc1 [Chlorhexidine Dihydrochloride] | 59.9% | 70.3% | 26.9% | 53.6% | –
CCCCCCCCc1ccc(CCC(N)(CO)CO)cc1 [Fingolimod] | 76.1% | 47.9% | 81.5% | 58.9% | –
COC(=O)C1=C(C)NC(C)=C(C(=O)OC)C1c1ccccc1[N+](=O)[O-] [Nifedipine] | 4.2% | -10.8% | 7.9% | 74.3% | –
O=C1c2c(O)ccc(O)c2C(=O)c2c(NCCNCCO)ccc(NCCNCCO)c21 [Mitoxantrone HCl] | 72.6% | 71.1% | 68.8% | 73.7% | –
